The values below come from EPA's ToxValDB 9.5.

For one data set, the system named is Anas platyrhynchos. The settings on record: oral.
In data set [1] the test system is Rattus norvegicus. As to conditions: repeat dose other; oral.
The test system of the next data set is Gallus sp. As to conditions: repeat dose other; oral.
Data set [2] deals with Mus musculus. The settings on record: oral; for NOAEL: M/F.
Data set [3] deals with Rattus norvegicus. The settings on record: oral, gavage.
Data set [4] concerns Rattus norvegicus. Put plainly: LC0; higher = less toxic. As to conditions: acute; inhalation.
For data set [5], the system named is Rattus norvegicus. As to conditions: for LC50 / LD50: acute.
In data set [6] the test system is Mus musculus. As to conditions: oral, M/F.
Data set [7] concerns Mus musculus. As to conditions: oral.
Data set [8] concerns Oryctolagus sp. The settings on record: subchronic; inhalation; M/F; functional and histological peripheral neurotoxicity.
Data set [9] has as its system Oryctolagus sp. As to conditions: chronic; duration: 5 months; inhalation; intermittent; Nervous system: Neurotoxicity.
The subject of data set [10] is Rattus norvegicus. The settings on record: subchronic; duration: 90 days; inhalation; M/F; Wistar; hepatic.
Data set [11] relates to Mus musculus. The settings on record: developmental; duration: 7 days; oral; gavage; M/F; albino; developmental.
Data set [12] concerns Rattus norvegicus. As to conditions: subchronic, M/F.
Data set [13] concerns Mus musculus. As to conditions: repeat dose other; oral.
For the next data set, the system named is Chrysomus sp. The settings on record: oral.
For data set [14], the system named is Oryctolagus sp. Put plainly: LD0; higher = less toxic. As to conditions: acute.
In data set [15] the test system is Rattus norvegicus. Nature of the data set: LD0; higher = less toxic. As to conditions: acute; oral; gavage.
The test system of data set [16] is Oryctolagus sp. The settings on record: for LD50: acute, dermal; for NOAEL: duration: 13 days, oral, gavage.
The test system of data set [17] is Mus musculus. The settings on record: subchronic; duration: 13 weeks; oral; gavage; Liver: Lesions.
[18] abbreviates: short-term, duration: 28 days, M, Sprague-Dawley, Functional Observational Battery: No urination (week1) + Body Weight Changes: decrease + Food Consumption: decrease + Urinalysis: Volume ….
The mark [19] stands for this setting: subchronic, gavage, clinical signs (lethargy, prostration, and ataxia and hematological changes.
Setting [20] is: chronic, duration: 104 weeks, hepatic necrosis.
[21] abbreviates: short-term, duration: 4 weeks, oral, diet, Sprague-Dawley.

Where “and” joins values, the source holds several entries; their conditions need not be identical. Equal entries are not always repeated.

Broadly, the LOAEL is the lowest dose or exposure tested at which an adverse effect was seen. What is called NOAEL is the highest dose or exposure tested at which no adverse effect was seen. As to `O=[As][O-].[Na+]` [Sodium arsenite], in the data set on Anas platyrhynchos, the LOAEL came out at 12.8 mg/kg-day and the NOAEL was 5.14 mg/kg-day.
On to `[Ba+2].[OH-].[OH-]` [Barium hydroxide], for which the LOAEL in the data set on Rattus norvegicus [1] was found to be 19.8 mg/kg-day. In the data set with Gallus sp., this molecule registered an LOAEL of 41.7 mg/kg-day and a no-observed-adverse-effect level (NOAEL) of 20.8 mg/kg-day.
Take `CN(C)N=O` [N-Nitrosodimethylamine]: the LOAEL with Mus musculus [2] (developmental, duration: 100 days, drinking water, F, CD1, developmental) was found to be 0.025 mg/kg-day. In the data set on Rattus norvegicus [3] (setting [18]), the NOAEL was below 0.8 mg/kg-day and the NOEL is below 0.8 mg/kg-day.
Consider `FC(F)(F)C(F)(Cl)Cl` [1,1-Dichlorotetrafluoroethane], for which, in the data set on Rattus norvegicus [4], the LC0 was above 1.07e+06 mg/m3. Besides, in the data set on Rattus norvegicus [5] (short-term, duration: 2 weeks, inhalation, M, Crl:CDABR), the no-observed-adverse-effect level (NOAEL) worked out at 289000 mg/m3.
Take `Cc1ccc(O)c(C)c1` [2,4-Dimethylphenol]: the no observed adverse effect level (NOAEL) in the data set with Mus musculus [2] (subchronic, duration: 90 days, gavage, Crl:CD-1(ICR)BR-VAF+, Whole Body Effects) was found to be 50 mg/kg-day; with Mus musculus [6] (setting [19]), 50 mg/kg-day; in the data set with Mus musculus [7] (subchronic, duration: 90 days, gavage, F), 50 mg/kg-day. This molecule registered an LOAEL in the data set on Mus musculus [6] (setting [19]) of 250 mg/kg-day. Besides, the results for the LC50 in the data set on Rattus norvegicus [5] (oral) and in the data set with Mus musculus [7] (acute) were 2300 mg/kg and 809 mg/kg, respectively.
In the data set on Oryctolagus sp. [8], `C=CCCl` [Allyl chloride] returned an LOAEL of 206 mg/m3 and a no-observed-adverse-effect level (NOAEL) of 17 mg/m3. This molecule also displayed an NOAEL in the data set on Oryctolagus sp. [9] of 17 mg/m3.
For the molecule `ClC1=C(Cl)C2(Cl)C3C(Cl)C(Cl)CC3C1(Cl)C2(Cl)Cl` (centres undefined) [Technical chlordane], the no-observed-adverse-effect level (NOAEL) in the data set on Rattus norvegicus [10] is 0.1 mg/m3; in the data set on Rattus norvegicus [12] (inhalation, hepatic effects), 1 mg/m3; in the data set on Mus musculus [6] (setting [20]), 0.15 mg/kg-day; in the data set on Mus musculus [13], 4.6 mg/kg-day; in the data set on Chrysomus sp., 2.14 mg/kg-day. Also, the LOAEL with Mus musculus [11] was found to be 1 mg/kg-day; with Mus musculus [6] (setting [20]), 0.75 mg/kg-day; in the data set with Mus musculus [13] it was 9.2 mg/kg-day; in the data set on Chrysomus sp. it was 10.7 mg/kg-day.
By LD50 is commonly meant the dose expected to kill half of the subjects tested. On to `CCCCC(CC)COP(=O)(O)O` (centres undefined) [2-Ethylhexyl dihydrogen phosphate], for which the LD0 with Oryctolagus sp. [14] (dermal, New Zealand) came to 11300 mg/kg; with Rattus norvegicus [15], 3640 mg/kg. The LD50 is above 4640 mg/kg in the data set on Oryctolagus sp. [16] (New Zealand); 4100 mg/kg and 2710 mg/kg in the data set with Rattus norvegicus [5] (oral, gavage, Sprague-Dawley).
In the case of `c1ccoc1` [Furan], in the data set on Rattus norvegicus [3] (subchronic, duration: 13 weeks, M/F, Fischer 344, Deaths + Body Weight Changes: decrease + Absolute Organ Weight: Right kidney increase, Liver increase, Thymus decrease + Relative Organ …), the NOEL was below 4 mg/kg-day. In the data set with Rattus norvegicus [12] (oral, hepatic lesions), this molecule registered an LOAEL of 4 mg/kg-day. For the same molecule, the no observed adverse effect level (NOAEL) in the data set with Mus musculus [6] (subchronic, hepatic lesions) is 2 mg/kg-day; in the data set on Mus musculus [17] it was 1.4 mg/kg-day.
`[Cl][Al]([Cl])[Cl]` [Aluminum chloride] came in with an LOAEL in the data set on Gallus sp. of 44.5 mg/kg-day. In the data set on Mus musculus [13], this molecule had an LOAEL of 19.3 mg/kg-day and an NOAEL of 1.93 mg/kg-day.
On to `S=c1[nH]c2ccccc2s1` [2-Mercaptobenzothiazole], for which the NOEL with Rattus norvegicus [3] (subchronic, duration: 13 weeks, M/F, Fischer 344, Absolute Organ Weight: Liver increase + Relative Organ Weight: Liver increase) is below 188 mg/kg-day; in the data set with Rattus norvegicus [3] (subchronic, M, Sprague-Dawley, Clinical Observation: Locomotor activity with ptosis decrease, Salivation + Body Weight Changes: Suppression of body weight gain(tendency…), below 40 mg/kg-day. Also, the LD0 in the data set on Oryctolagus sp. [14] (oral) is ≥ 7500 mg/kg and ≤ 8750 mg/kg; with Oryctolagus sp. [14] (oral, New Zealand) it was ≥ 7500 mg/kg and ≤ 8750 mg/kg. Further, the LD50 with Oryctolagus sp. [16] was above 7940 mg/kg; in the data set with Oryctolagus sp. [16] (New Zealand) it was above 7940 mg/kg; with Rattus norvegicus [5] (oral, Sprague-Dawley), 2830 mg/kg and 3800 mg/kg; in the data set with Mus musculus [7] (acute), 2000 mg/kg. Moreover, the NOAEL with Oryctolagus sp. [16] (developmental, New Zealand) is 300 mg/kg-day; in the data set with Oryctolagus sp. [16] (reproduction developmental, F, New Zealand) it was 300 mg/kg-day and < 150 mg/kg-day; in the data set with Rattus norvegicus [5] (developmental, duration: 10 days, oral, gavage, Sprague-Dawley) it was 1800 mg/kg-day and 2200 mg/kg-day; in the data set with Rattus norvegicus [5] (reproduction developmental, duration: 10 days, oral, gavage, F, Sprague-Dawley) it was 300 mg/kg-day; in the data set on Rattus norvegicus [5] (reproduction developmental, oral, diet, Crl:CD COBS BR), 2500 ppm; in the data set on Rattus norvegicus [5] (reproduction developmental, oral, diet, Sprague-Dawley, generation: F0) it was below 5000 ppm. Also, the NOAEL in the data set with Rattus norvegicus [5] (reproduction developmental, oral, diet, Sprague-Dawley, generation: F1) was below 5000 ppm; with Rattus norvegicus [5] (setting [21]), 714 mg/kg-day; in the data set with Rattus norvegicus [5] (subchronic, duration: 13 weeks, oral, gavage, Fischer 344), 375 mg/kg-day. The molecule further returned an LC50 in the data set with Rattus norvegicus [5] (inhalation) above 1.27 µg/mL. Besides, in the data set on Rattus norvegicus [5] (setting [21]), the LOAEL was 1070 mg/kg-day.
With `CN(C)C=O` [N,N-Dimethylformamide], the NOAEL in the data set on Mus musculus [2] (chronic, duration: 119 days, diet, CD1, hepatic) amounted to 96 mg/kg-day.
